We go through four compounds from patent US9963674B2, “Age-modified cells and methods for making age-modified cells” (Memorial Sloan-Kettering Cancer Center, priority 2013, dated 2018).

The subject of one data set is motor neurons (MNs). The conditions noted are these: after trophic factor withdrawal (Yang et al.); cited from earlier work.
For data set [1], the system named is proliferating cells in iPSC-derived mDA neuron cultures. Put plainly: Mitomycin C treatment of iPSC-derived mDA neuron cultures. It counts as cell-based, human. To be noted: 1 day following the final day 30 replating. As to the method: One to two days after plating, cells were treated with 1 μg/ml mitomycin C (Tocris) for 1 hour to kill any remaining proliferating contaminants. iPSC-derived mDA neurons were fed every 2 to 3 days and maintained without passaging until the desired timepoint for a given experiment. PO, laminin and fibronectin were added to the medium every 7-10 days to prevent neurons from lifting off.

The next data set concerns iPSC-derived mDA neurons. Put plainly: mDA neuron marker expression (NURR1, TH) as sign of acute toxicity. The class given is cell-based, human. To be noted: treatment of mDA neurons. As to the method: Cells were fixed in 4% paraformaldehyde for 15 minutes. Blocking was performed in phosphate-buffered saline supplemented with 1% BSA, and 0.3% Triton X-100 for 30 minutes to 1 hour. Cells were stained overnight at 4° C. with primary antibodies diluted in blocking buffer. Following several washes, cells were stained with appropriate Alexa Fluor-labeled secondary antibodies (Molecular Probes, Carlsbad, Calif.) at 1:500 in blocking buffer for 30 minutes to 3 hours at room temperature. Cells were counterstained with 4′,6-diamidino-2-phenylindole (DAPI; Thermo Fisher, Rockford, Ill.) to visualize nuclei. Images were acquired with an Olympus IX81 microscope using a Hamamatsu ORCA CCD camera.
Cells were collected with a cell lifter (Corning, Tewksbury, Mass.) in ice-cold phosphate-buffered saline without calcium or magnesium (PBS−/−). Cell pellets were rapidly frozen on ethanol and dry ice and stored at −80° C. Cell pellets were thawed on ice and resuspended in 50-200 μl RIPA lysis buffer (50 mM Tris-HCl pH 8.0, 120 mM NaCl, 6 mM EDTA, 0.5% NP-40) with 1% sodium dodecyl sulfate (SDS). Cell suspensions were vortexed at 15-minute intervals during a 45-minute incubation on ice. Lysates were isolated following a 10,000 rpm spin for 10 minutes at 4° C. 20-40 μg samples were further diluted with 4× Laemmli sample buffer, boiled for 5 minutes at 95° C., and loaded onto a NuPAGE 4-12% Bis-Tris precast gel (Life Technologies). Gel electrophoresis was performed at 100 V for 2 hours. Gels were transferred to a methanol activated PVDF membrane using the XCell II Blot Module (Life Technologies) according to the manufacturer's instructions. Blots were blocked in 3% bovine serum albumin (BSA) in Tris buffered saline plus 0.1% Tween-20 (TBS-T) for 45 minutes at room temperature. […]
Following several washes with TBS-T, blots were incubated in appropriate HRP-labeled secondary antibodies (Jackson ImmunoResearch, West Grove, Pa.) for 1 hour at room temperature. […] Densitometry quantification was performed using ImageJ on blots from three independent experiments.

Data set [2] deals with doxycycline (dox)-inducible fibroblast line. Description: Reversibility of progerin-induced nuclear changes in doxycycline-inducible fibroblast line. It counts as cell-based. The conditions noted are these: following re-addition of doxycycline.

SMILES strings stand for the structures. Some results are limits rather than exact numbers.

`O=C1Cc2c([nH]c3ccc(Br)cc23)-c2ccccc2N1` [kenpaullone]: the “survival of MNs” value with motor neurons (MNs) is recorded as “impressive ability to prolong the healthy survival of MNs”.
As for `CO[C@@]12[C@H](COC(N)=O)C3=C(C(=O)C(C)=C(N)C3=O)N1C[C@@H]1N[C@@H]12` [Mitomycin C, mitomycin C], in data set [1], the post-mitotic neurons result is on record as “unaffected” and the remaining proliferating cells result is on record as “helped to eliminate the remaining proliferating cells”.
As to `N#CC(C#N)=NNc1cccc(Cl)c1` [CCCP, carbonyl cyanide 3-chlorophenylhydrazone, reference compound], the “mDA neuron marker expression after mitochondrial toxin” value in the data set with iPSC-derived mDA neurons is recorded as “rapidly induces mDA neuron marker loss”.
Regarding `C[C@H]1c2cccc(O)c2C(=O)C2=C(O)[C@]3(O)C(=O)C(C(N)=O)=C(O)[C@@H](N(C)C)[C@@H]3[C@@H](O)[C@@H]21` [doxycycline], in data set [2], the “time to reversal of progerin-induced changes in nuclear morphology” value is given as not above 10 days.
